Results on 8 molecules are retold here after PMC8749431 (mBio, 2022).

SMILES strings stand for the structures. Where only a bound is given, the exact number is not on record here.

One test deals with rVSV-SARS-CoV-2-S-GFP. The format is cell-based.
The test system of test [1] is pseudotyped VSVs harboring SARS-CoV-2 S (SARS2-Spp). As to the kind of experiment: microbe, parasite or virus in culture. The format is cell-based.
[2] abbreviates: Severe acute respiratory syndrome coronavirus 2.
Where [3] appears, read: Severe acute respiratory syndrome coronavirus 2, 24 h.
Setting [4] is: Severe acute respiratory syndrome coronavirus 2, Huh-7, 24 h.
[5] abbreviates: Severe acute respiratory syndrome coronavirus 2, MA104.
The mark [6] stands for this setting: Severe acute respiratory syndrome coronavirus 2, MA104, 24 h.

Broadly, the EC90 is the point of the concentration-response curve where the effect stands at 90%. A high value points to a need for much substance. A word on the EC50: it is the concentration that produces a half-maximal response. As for `Cc1cc(-c2nc(CN3CCC(C(=O)NCCCN4C[C@H](C)C[C@H](C)C4)CC3)co2)ccc1F` [Fluoxazolevir, fluoxazolevir], the “EC50 (GFP signals)” value with rVSV-SARS-CoV-2-S-GFP was “single-digit micromolar range”. Also, the “inhibition of rVSV-SARS-CoV-2-S-GFP infection” value with rVSV-SARS-CoV-2-S-GFP is on record as “inhibited”. Besides, the results for the EC90 in test [1] (setting [2]) and in test [1] (setting [5]) were 13.6 µM and 18.5 µM, respectively. Besides, the concentration for a half-maximal effect (EC50) turned out to be 6.82 µM in test [1] (setting [3]), 2.64 µM in test [1] (setting [4]) and 3.86 µM in test [1] (setting [6]).

In test [1] (setting [2]), `O=C(CCCCC1SCC2NC(=O)NC21)NCCOCCOCCN1CCN(C(c2ccc(Cl)cc2)c2ccc(C3(C(F)(F)F)N=N3)cc2)CC1` (stereo not drawn) [CCZ-DB] had an EC50 of 12.9 µM.

For `CCN1CCN(C(c2ccc(Cl)cc2)c2ccc(Cl)cc2)CC1` [Dichlorcyclizine, dichlorcyclizine], the “EC50 (GFP signals)” value in the test on rVSV-SARS-CoV-2-S-GFP is given as “single-digit micromolar range”. The “inhibition of rVSV-SARS-CoV-2-S-GFP infection” value with rVSV-SARS-CoV-2-S-GFP is listed as “inhibited”. The EC50 in test [1] (setting [3]) was found to be 2.34 µM; in test [1] (setting [4]), 3.05 µM; in test [1] (setting [6]), 4.53 µM.

For the molecule `CCN(CC)CCCC(C)Nc1ccnc2cc(Cl)ccc12` (stereo not drawn) [Chloroquine, chloroquine], the “EC50 (GFP signals)” value with rVSV-SARS-CoV-2-S-GFP is “single-digit micromolar range”. In the test with rVSV-SARS-CoV-2-S-GFP, the “inhibition of rVSV-SARS-CoV-2-S-GFP infection” value is listed as “inhibited”. Besides, in test [1], the “inhibition of SARS2-Spp entry” value is “inhibited”. Further, the concentration for an effect of 90% (EC90) in test [1] (setting [2]) came out at 30.2 µM; in test [1] (setting [5]), 32.3 µM. Besides, the EC50 was 2.07 µM in test [1] (setting [3]), 4.38 µM in test [1] (setting [4]) and 7.65 µM in test [1] (setting [6]).

In the case of `CN(C)C(=O)COC(=O)Cc1ccc(OC(=O)c2ccc(NC(=N)N)cc2)cc1` [Camostat, camostat], the EC50 in test [1] (setting [3]), in test [1] (setting [4]) and in test [1] (setting [6]) was more than 100 µM in each case.

As for `CN1CCN([C@@H](c2ccccc2)c2ccc(Cl)cc2)CC1` [(S)-CCZ, (S)-chlorcyclizine], the half-maximal effective concentration (EC50) in test [1] (setting [3]) was found to be 11.4 µM; in test [1] (setting [4]), 9.2 µM; in test [1] (setting [6]), 4.09 µM. Moreover, the EC90 in test [1] (setting [5]) was found to be 11.1 µM.

On to `O=C(CCCC[C@@H]1SC[C@@H]2NC(=O)N[C@@H]21)NCc1ccc(C2(C(F)(F)F)N=N2)cc1` [DB-Ctrl], for which the EC50 in test [1] (setting [2]) is more than 100 µM.

As for `CCOC(=O)[C@H]1O[C@@H]1C(=O)N[C@@H](CC(C)C)C(=O)NCCC(C)C` [E-64d], the “inhibition of SARS2-Spp entry” value in test [1] is on record as “inhibited”.
